Experimental data from patent publication US5593970A, “Heterocyclic anthracycline analogs” (priority 1994, dated 1997).
Counter-ions that a name gives are not always drawn. Like-named read-outs stand apart in the source and are kept apart here.

Assays:
HT29 = assay: Soft agar colony formation disk diffusion assay; assay type: cell-based, human
In short: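 Cells were plated at 10^4–2×10^5 cells per dish in a 0.4% Noble agar upper layer over 0.8% agar. The compound (DMSO/water solution) was applied on a 6.5 mm filter disk, and plates were incubated at 37 °C, 5% CO2 for 10–20 days. Anti-clonogenic activity was measured microscopically as the inhibition zone from the disk edge to the nearest colonies (>50 cells).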

MATB.WT = assay: Soft agar colony formation disk diffusion assay; assay type: cell-based, rat
In short: (§1)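 Anti-clonogenic activity is scored as the distance from the drug-loaded disk edge to the closest colony of more than 50 cells. Solid tumour and leukaemia lines are plated in separate dishes in two-layer soft agar and incubated 10-20 days at 37° C.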

MATB/ADR = assay: Soft agar colony formation disk diffusion assay; assay type: cell-based, rat
In short: as §1

SKVLB = assay: Microculture tetrazolium assay; assay type: cell-based; settings: for VLB/OV3: IC50 ratio SKVLB/SKOV3; for IC50: SKVLB, read-out: IC50
P388 = assay: Soft agar colony formation disk diffusion assay; assay type: cell-based, murine
In short: as §1

P388/ADR = assay: Soft agar colony formation disk diffusion assay; assay type: cell-based, murine
In short: as §1

B16 = assay: Soft agar colony formation disk diffusion assay; assay type: cell-based, murine
In short: as §1

M5076 = assay: Soft agar colony formation disk diffusion assay; assay type: cell-based, murine
In short: as §1

LL = assay: Soft agar colony formation disk diffusion assay; assay type: cell-based, murine
In short: as §1

SKOV3 = assay: Microculture tetrazolium assay; assay type: cell-based; settings: read-out: IC50
T47D = assay: Microculture tetrazolium assay; assay type: cell-based; settings: read-out: IC50

Compound: 3-(2-hydroxy)aceto-6-hydroxy-1,2,3,4-tetrahydro-(2-oxygen)naphthacene-5,12-dione and 3-(2-hydroxy)aceto-11-hydroxy-1,2,3,4-tetrahydro-(2-oxygen)naphthacene-5,12-dione [BCH-694]
- zone of inhibition (HT29; 10 μg/DISK): 30.5 ± 8.6 Zone Units
- zone of inhibition (HT29; 100 μg/DISK): 143.3 ± 30.1 Zone Units
- zone of inhibition (MATB.WT; 10 μg/DISK): 76.2 ± 2.5 Zone Units
- zone of inhibition (MATB.WT; 100 μg/DISK): 207.0 ± 33.9 Zone Units
- zone of inhibition (MATB/ADR; 10 μg/DISK): 27.4 ± 4.3 Zone Units
- zone of inhibition (MATB/ADR; 100 μg/DISK): 213.5 ± 43.1 Zone Units
- VLB/OV3 (SKVLB): 2.18
- IC50 (SKVLB): 17.9 µM
- zone of inhibition (P388; 10 μg/DISK): 67.1 ± 8.6 Zone Units
- zone of inhibition (P388; 100 μg/DISK): 115.9 ± 94.8 Zone Units
- zone of inhibition (P388/ADR; 10 μg/DISK): 6.1 ± 8.6 Zone Units
- zone of inhibition (P388/ADR; 100 μg/DISK): 39.6 ± 12.9 Zone Units
- zone of inhibition (B16; 10 μg/DISK): 0 Zone Units
- zone of inhibition (B16; 100 μg/DISK): 128.0 ± 26.0 Zone Units
- zone of inhibition (M5076; 10 μg/DISK): 27.4 ± 4.3 Zone Units
- zone of inhibition (M5076; 100 μg/DISK): 137.2 ± 99.2 Zone Units
- zone of inhibition (LL; 100 μg/DISK): 30.5 ± 8.6 Zone Units
- IC50 (SKOV3; SKOV3): 8.22 µM
- IC50 (T47D): 11.3 µM

Compound: 3-carbomethoxy-6-hydroxy-1,2,3,4-tetrahydro-(2-sulfur)naphthacene-5,12-dione and 3-carbomethoxy-11-hydroxy-1,2,3,4-tetrahydro(2-sulfur)naphthacene-5,12-dione [BCH-693]
- zone of inhibition (HT29; 10 μg/DISK): 0 Zone Units
- zone of inhibition (HT29; 100 μg/DISK): 39.6 ± 4.3 Zone Units
- zone of inhibition (MATB.WT; 10 μg/DISK): 0 Zone Units
- zone of inhibition (MATB.WT; 100 μg/DISK): 42.7 ± 8.8 Zone Units
- zone of inhibition (MATB/ADR; 10 μg/DISK): 0 Zone Units
- zone of inhibition (MATB/ADR; 100 μg/DISK): 67.1 ± 8.6 Zone Units
- VLB/OV3 (SKVLB): 1.06
- IC50 (SKVLB): 44.2 µM
- zone of inhibition (P388; 10 μg/DISK): 120.0 ± 0.0 Zone Units
- zone of inhibition (P388; 100 μg/DISK): 400.0 Zone Units
- zone of inhibition (P388/ADR; 10 μg/DISK): 20.0 ± 0.0 Zone Units
- zone of inhibition (P388/ADR; 100 μg/DISK): 76.5 ± 21.9 Zone Units
- zone of inhibition (B16; 10 μg/DISK): 0 Zone Units
- zone of inhibition (B16; 100 μg/DISK): 27.4 ± 4.3 Zone Units
- zone of inhibition (M5076; 10 μg/DISK): 27.4 ± 4.3 Zone Units
- zone of inhibition (M5076; 100 μg/DISK): 51.8 ± 12.9 Zone Units
- zone of inhibition (LL; 100 μg/DISK): 45.7 ± 21.5 Zone Units
- IC50 (SKOV3; SKOV3): 41.6 µM
- IC50 (T47D): 16.3 µM

Compound: CCOC(=O)[C@@H]1CC2=C(C(=O)c3c(c(O)c4ccccc4c3OC(C)=O)C2=O)[C@@H](O)O1 (mixture of isomers) [BCH-658, (1S,3S) and (1R,3R) Ethyl[11-acetoxy-1,6-dihydroxy-5,12-dioxo-3,4,5,12-tetrahydroanthraceno (2,3-c)pyran-3-yl]formate]
- zone of inhibition (HT29; 10 μg/DISK): 0 Zone Units
- zone of inhibition (HT29; 100 μg/DISK): 0 Zone Units
- zone of inhibition (MATB.WT; 10 μg/DISK): 0 Zone Units
- zone of inhibition (MATB.WT; 100 μg/DISK): 0 Zone Units
- zone of inhibition (MATB/ADR; 10 μg/DISK): 0 Zone Units
- zone of inhibition (MATB/ADR; 100 μg/DISK): 0 Zone Units
- IC50 (SKVLB): > 100 µM
- zone of inhibition (P388; 10 μg/DISK): 42.7 ± 17.2 Zone Units
- zone of inhibition (P388; 100 μg/DISK): 61.0 ± 0.0 Zone Units
- zone of inhibition (P388/ADR; 10 μg/DISK): 18.3 ± 8.6 Zone Units
- zone of inhibition (P388/ADR; 100 μg/DISK): 51.3 ± 20.7 Zone Units
- zone of inhibition (B16; 10 μg/DISK): 0 Zone Units
- zone of inhibition (B16; 100 μg/DISK): 0 Zone Units
- zone of inhibition (M5076; 10 μg/DISK): 26.6 ± 13.6 Zone Units
- zone of inhibition (M5076; 100 μg/DISK): 76.2 ± 21.5 Zone Units
- zone of inhibition (LL; 100 μg/DISK): 51.9 ± 21.5 Zone Units
- IC50 (SKOV3; Homo sapiens, SK-OV-3, SKOV3): 11.2 µM
- IC50 (T47D; Homo sapiens): > 100 µM

Compound: CCOC(=O)[C@@H]1CC2=C(C(=O)c3cc4ccccc4c(OC(C)=O)c3C2=O)[C@@H](O)O1 (mixture of isomers) [BCH-660, (1S,3S) and (1R,3R)-Ethyl-[6-acetoxy-1-hydroxy-5,12-dioxo-3,4,5,12-tetrahydroanthraceno (2,3-c)pyran-3-yl]formate]
- zone of inhibition (HT29; 10 μg/DISK): 27.4 ± 4.3 Zone Units
- zone of inhibition (HT29; 100 μg/DISK): 103.7 ± 2.1 Zone Units
- zone of inhibition (MATB.WT; 10 μg/DISK): 137.2 ± 21.5 Zone Units
- zone of inhibition (MATB.WT; 100 μg/DISK): 137.2 ± 21.5 Zone Units
- zone of inhibition (MATB/ADR; 10 μg/DISK): 24.4 ± 8.6 Zone Units
- zone of inhibition (MATB/ADR; 100 μg/DISK): 161.5 ± 30.4 Zone Units
- VLB/OV3 (SKVLB): 1.22
- IC50 (SKVLB): 6.49 µM
- zone of inhibition (P388; 10 μg/DISK): 18.3 ± 8.6 Zone Units
- zone of inhibition (P388; 100 μg/DISK): 54.9 ± 0.0 Zone Units
- zone of inhibition (P388/ADR; 10 μg/DISK): 6.1 ± 8.6 Zone Units
- zone of inhibition (P388/ADR; 100 μg/DISK): 54.9 ± 8.6 Zone Units
- zone of inhibition (B16; 10 μg/DISK): 6.1 ± 8.6 Zone Units
- zone of inhibition (B16; 100 μg/DISK): 85.4 ± 8.6 Zone Units
- zone of inhibition (M5076; 10 μg/DISK): 24.4 ± 8.6 Zone Units
- zone of inhibition (M5076; 100 μg/DISK): 61.0 ± 0.0 Zone Units
- zone of inhibition (LL; 100 μg/DISK): 55.0 ± 8.4 Zone Units
- IC50 (SKOV3; Homo sapiens, SK-OV-3, SKOV3): 5.34 µM
- IC50 (T47D; Homo sapiens): 6.67 µM

Compound: COC(=O)[C@H]1CC2=C(C(=O)c3c(c(OC)c4ccccc4c3O)C2=O)[C@H](O[C@H]2C[C@H](NC(=O)C(F)(F)F)[C@H](O)[C@H](C)O2)O1 (mixture of isomers) [BCH-675, (1'S,1S,3R) and 1'S,1R,3S) Methyl(11-hydroxy-6-methoxy-1-[2',3',6'-trideoxy-3-trifluoroacetamido-4'-hydroxy-L-lyxohexopyranose]-5,12-dioxo-3,4,5,12-tetrahydroanthra-ceno[2,3-c]pyran-3-yl) formate]
- zone of inhibition (HT29; 10 μg/DISK): 0 Zone Units
- zone of inhibition (HT29; 100 μg/DISK): 0 Zone Units
- zone of inhibition (MATB.WT; 10 μg/DISK): 0 Zone Units
- zone of inhibition (MATB.WT; 100 μg/DISK): 32.5 ± 9.3 Zone Units
- zone of inhibition (MATB/ADR; 10 μg/DISK): 22.3 ± 3.5 Zone Units
- zone of inhibition (MATB/ADR; 100 μg/DISK): 59.4 ± 8.6 Zone Units
- VLB/OV3 (SKVLB): 0.43
- IC50 (SKVLB): 3.97 µM
- zone of inhibition (P388; 10 μg/DISK): 0 Zone Units
- zone of inhibition (P388; 100 μg/DISK): 152.5 ± 30.5 Zone Units
- zone of inhibition (P388/ADR; 10 μg/DISK): 10.1 ± 9.3 Zone Units
- zone of inhibition (P388/ADR; 100 μg/DISK): 146.3 ± 32.3 Zone Units
- zone of inhibition (B16; 10 μg/DISK): 0 Zone Units
- zone of inhibition (B16; 100 μg/DISK): 0 Zone Units
- zone of inhibition (M5076; 10 μg/DISK): 0 Zone Units
- zone of inhibition (M5076; 100 μg/DISK): 142.0 ± 35.2 Zone Units
- zone of inhibition (LL; 10 μg/DISK): 75.2 ± 40.5 Zone Units
- zone of inhibition (LL; 100 μg/DISK): 264.0 ± 38.0 Zone Units
- IC50 (SKOV3; Homo sapiens, SK-OV-3, SKOV3): 9.16 µM
- IC50 (T47D; Homo sapiens): 2.8 µM

Compound: Methyl(11-hydroxy-5,12-dioxo-3,4,5,12-tetrahydroanthraceno[2,3-c]pyran-3-yl)ketone and Methyl(5-hydroxy-5,12-dioxo-3,4,5,12-tetrahydroanthraceno[2,3-c]pyran-3-yl)ketone [BCH-687]
- zone of inhibition (HT29; 10 μg/DISK): 61.0 ± 12.2 Zone Units
- zone of inhibition (HT29; 100 μg/DISK): 150.4 ± 25.3 Zone Units
- zone of inhibition (MATB.WT; 10 μg/DISK): 42.7 ± 6.1 Zone Units
- zone of inhibition (MATB.WT; 100 μg/DISK): 97.6 ± 20.0 Zone Units
- zone of inhibition (MATB/ADR; 10 μg/DISK): 69.1 ± 7.0 Zone Units
- zone of inhibition (MATB/ADR; 100 μg/DISK): 101.6 ± 35.2 Zone Units
- zone of inhibition (P388; 10 μg/DISK): 81.3 ± 30.0 Zone Units
- zone of inhibition (P388; 100 μg/DISK): 183.0 ± 81.0 Zone Units
- zone of inhibition (P388/ADR; 10 μg/DISK): 0 Zone Units
- zone of inhibition (P388/ADR; 100 μg/DISK): 153.6 ± 30.6 Zone Units
- zone of inhibition (B16; 10 μg/DISK): 34.6 ± 3.6 Zone Units
- zone of inhibition (B16; 100 μg/DISK): 70.1 ± 13.0 Zone Units
- zone of inhibition (M5076; 10 μg/DISK): 0 Zone Units
- zone of inhibition (M5076; 100 μg/DISK): 410.8 ± 46.5 Zone Units
- zone of inhibition (LL; 10 μg/DISK): 62.8 ± 30.7 Zone Units
- zone of inhibition (LL; 100 μg/DISK): 182.6 ± 35.2 Zone Units
